{
  "source": "patent US10034879B2",
  "about": "“Substituted benzaldehyde compounds and methods for their use in increasing tissue oxygenation” (Global Blood Therapeutics, Inc., priority 2011, dated 2018)",
  "biological_target": "T1, purified HBS (Homo sapiens, UniProt P68871+P69905, E7V)",
  "T1 construct": "HbS is purified by the CRO VIRUSYS, from blood obtained from homozygous sickle cell patients; tissue VIRUSYS (CRO that did the purification); host or cells: blood of homozygous sickle cell patients",
  "experiment": "HbS polymerization assay (delay time)",
  "assay_type": "biochemical",
  "settings": "50 μM purified HBS, 1.8 M potassium phosphate pH 7.4",
  "procedure": "Polymerization assays are carried out in vitro using purified HBS exchanged into 1.8 M potassium phosphate buffer at pH 7.4. Using a slightly modified protocol (Antonini and Brunori, 1971), HbS is purified by the CRO VIRUSYS, from blood obtained from homozygous sickle cell patients through the Hemoglobinopathy Center at Children's Hospital Oakland Research Institute (CHORI) with Institutional Review Board approval. Compounds are prepared in 100% DMSO and a desired amount is added to 50 μM of purified HBS at a final DMSO concentration of 0.3%. Final potassium phosphate concentration is adjusted to 1.8 M using a combination of 2.5 M potassium phosphate stock solution and water at pH 7.4. The reaction mixture is incubated for an hour at 37° C. and then transferred into a 24-well plate for deoxygenation in a glove box containing 99.5% nitrogen and 0.5% oxygen. The 24-well plate is not covered and incubated at 4° C. on a plate cooler inside the glove box for one and a half hours. Fifty μL of the reaction mixture is transferred into a 96-well plate and the absorbance at 700 nm is measured every minute for one hour at 37° C. in a plate reader located inside the glove box. A plot of the absorbance against time is fitted using a Boltzman sigmoidal fit and the delay time (from zero to time at half Vmax) is measured. To compare and rank compounds, delay times are expressed as percent delay (% DT), which is defined as the difference in delay times for HBS/compound and HBS alone multiplied by 100 and divided by the delay time for HBS alone.\nCompounds listed below have been tested in the polymerization assay. Activity ranges are defined by the number of dagger (†) symbols indicated. † denotes activity ≤40% but ≤80%; †† denotes activity >80% but ≤120%; ††† denotes activity >120% but ≤140%; †††† denotes activity >160%.",
  "data": [
    {"smiles": "CC(C)n1nccc1-c1ncccc1COc1cccc(O)c1C=O", "note": "[Compound 43, 2-hydroxy-6-((2-(1-isopropyl-1H-pyrazol-5-yl)pyridin-3-yl)methoxy)benzaldehyde]", "values": [
      {"measurement": "% delta Delay", "result": "†† (†† denotes activity >80% but ≤120%)"}
    ]}
  ]
}
